Measurements published in ChEMBL document CHEMBL5154881, “Discovery of First-in-Class TAK1-MKK3 Protein-Protein Interaction (PPI) Inhibitor (R)-STU104 for the Treatment of Ulcerative Colitis through Modulating TNF-α Production” (J Med Chem, 2022).

Tests used:
RAW264.7 [1] = experiment: Inhibition of LPS-induced TNFalpha production in mouse RAW264.7 cells preincubated for 2 hrs followed by LPS treatment for 24 hrs by RT-qPCR analysis; assay type: functional, cell-based
[2] = Metabolic stability in human liver microsomes assessed as intrinsic clearance at […] measured upto 60 mins in presence of NADPH by HPLC-MS analysis; assay type: ADME, Microsome; design: dose or concentration left out as unconfirmed; conditions: 1 h
[3] = n-Octanol/water partition coefficient, logP of the compound incubated for 24 hrs by HPLC analysis; assay type: physicochemical
[4] = biological target: Voltage-gated inwardly rectifying potassium channel KCNH2 (Homo sapiens, UniProt Q12809); experiment: Inhibition of hERG; assay type: toxicity
Sequence of Voltage-gated inwardly rectifying potassium channel KCNH2 (Q12809 whole entry): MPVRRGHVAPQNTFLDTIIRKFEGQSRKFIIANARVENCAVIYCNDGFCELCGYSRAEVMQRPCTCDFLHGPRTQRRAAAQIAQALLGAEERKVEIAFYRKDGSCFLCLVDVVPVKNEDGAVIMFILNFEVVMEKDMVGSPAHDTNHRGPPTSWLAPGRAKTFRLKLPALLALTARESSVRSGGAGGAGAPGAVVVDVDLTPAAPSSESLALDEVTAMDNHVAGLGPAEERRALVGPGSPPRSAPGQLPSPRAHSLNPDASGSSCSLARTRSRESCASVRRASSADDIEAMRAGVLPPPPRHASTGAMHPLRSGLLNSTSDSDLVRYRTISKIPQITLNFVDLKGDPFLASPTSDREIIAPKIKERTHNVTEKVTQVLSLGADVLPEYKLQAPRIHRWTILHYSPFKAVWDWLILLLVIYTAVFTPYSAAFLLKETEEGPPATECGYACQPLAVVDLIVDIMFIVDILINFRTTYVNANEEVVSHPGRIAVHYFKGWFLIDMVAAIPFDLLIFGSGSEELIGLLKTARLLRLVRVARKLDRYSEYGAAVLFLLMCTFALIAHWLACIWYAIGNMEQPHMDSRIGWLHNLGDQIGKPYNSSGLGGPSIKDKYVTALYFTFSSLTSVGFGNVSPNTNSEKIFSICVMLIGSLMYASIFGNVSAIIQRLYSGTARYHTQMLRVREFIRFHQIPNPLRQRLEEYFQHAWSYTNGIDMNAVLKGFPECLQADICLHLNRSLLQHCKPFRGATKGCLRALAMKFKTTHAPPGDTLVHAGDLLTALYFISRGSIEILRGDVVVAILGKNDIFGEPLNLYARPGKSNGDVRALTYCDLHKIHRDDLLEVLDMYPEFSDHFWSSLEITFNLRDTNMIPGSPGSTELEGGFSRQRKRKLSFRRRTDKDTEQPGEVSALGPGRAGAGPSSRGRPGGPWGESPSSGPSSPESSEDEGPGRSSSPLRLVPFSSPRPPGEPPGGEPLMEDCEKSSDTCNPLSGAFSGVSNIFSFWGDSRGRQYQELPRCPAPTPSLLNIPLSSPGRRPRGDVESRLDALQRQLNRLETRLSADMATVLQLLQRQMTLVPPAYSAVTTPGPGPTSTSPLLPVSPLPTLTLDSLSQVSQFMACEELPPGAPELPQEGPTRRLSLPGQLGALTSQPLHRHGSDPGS

[5] = Mutagenicity in Salmonella typhimurium by Ames test; assay type: toxicity; conditions: salmonella enterica subsp. enterica serovar typhimurium
[6] = AUC (0 to t) in 12 hr starved C57 mouse at 5 mg/kg, iv measured for 0.083 to 24 hrs post-dose by LC-MS-MS analysis; assay type: ADME, organism-based; design: time lower 0.083 hrs, dose 5 mg/kg, time upper 24 hrs, route iv; conditions: in vivo
[7] = MRT (0 to infinity) in 12 hr starved C57 mouse at 5 mg/kg, iv measured for 0.083 to 24 hrs post-dose by LC-MS-MS analysis; assay type: ADME, organism-based; conditions: in vivo, time 0.083-24 hrs
[8] = Half life in 12 hr starved C57 mouse at 5 mg/kg, iv measured for 0.083 to 24 hrs post-dose by LC-MS-MS analysis; assay type: ADME, organism-based; conditions: in vivo, time 0.083-24 hrs
[9] = Apparent clearance during terminal phase in 12 hr starved C57 mouse at 5 mg/kg, iv measured for 0.083 to 24 hrs post-dose by LC-MS-MS analysis; assay type: ADME, organism-based; conditions: in vivo, time 0.083-24 hrs
[10] = AUC (0 to t) in 12 hr starved C57 mouse at 30 mg/kg, po measured for 0.083 to 24 hrs post-dose by LC-MS-MS analysis; assay type: ADME, organism-based; design: time upper 24 hrs, dose 30 mg/kg, time lower 0.083 hrs, route po; conditions: in vivo
Mus musculus [11] = experiment: Anti-ulcerative colitis activity in DSS-induced C57BL/6 mouse ulcerative colitis model assessed as colon length recovery ratio at 1 mg/kg, IG via gavage measured after 7 days relative to control; assay type: functional; conditions: time 7 day
Mus musculus [12] = experiment: Antiinflammatory activity against DSS-induced C57BL/6 mouse model of acute ulcerative colitis assessed as inhibition ratio of TNF-alpha protein expression at 3 mg/kg, IG via gavage measured after 7 days by ELISA relative to control; assay type: functional; design: scale not given: the % may be the effect or the level left; conditions: time 7 day
Mus musculus [13] = experiment: Antiinflammatory activity against DSS-induced C57BL/6 mouse model of acute ulcerative colitis assessed as inhibition ratio of IL-1beta protein expression at 1 mg/kg, IG via gavage measured after 7 days by ELISA relative to control; assay type: functional; design: scale not given: the % may be the effect or the level left; conditions: time 7 day
Mus musculus [14] = experiment: Antiinflammatory activity against DSS-induced C57BL/6 mouse model of acute ulcerative colitis assessed as inhibition ratio of IL-1beta protein expression at 3 mg/kg, IG via gavage measured after 7 days by ELISA relative to control; assay type: functional; design: scale not given: the % may be the effect or the level left; conditions: time 7 day
Mus musculus [15] = experiment: Antiinflammatory activity against DSS-induced C57BL/6 mouse model of acute ulcerative colitis assessed as inhibition ratio of IL-6 mRNA expression in colon tissue at 1 mg/kg, IG via gavage measured after 7 days by RT-qPCR analysis relative to control; assay type: functional; design: scale not given: the % may be the effect or the level left; conditions: time 7 day
Mus musculus [16] = experiment: Antiinflammatory activity against DSS-induced C57BL/6 mouse model of acute ulcerative colitis assessed as inhibition ratio of IL-6 mRNA expression in colon tissue at 3 mg/kg, IG via gavage measured after 7 days by RT-qPCR analysis relative to control; assay type: functional; design: scale not given: the % may be the effect or the level left; conditions: time 7 day
Mus musculus [17] = experiment: Antiinflammatory activity against DSS-induced C57BL/6 mouse model of acute ulcerative colitis assessed as inhibition ratio of IL-6 mRNA expression in colon tissue at 10 mg/kg, IG via gavage measured after 7 days by RT-qPCR analysis relative to control; assay type: functional; design: scale not given: the % may be the effect or the level left; conditions: time 7 day
Mus musculus [18] = experiment: Antiinflammatory activity against DSS-induced C57BL/6 mouse model of acute ulcerative colitis assessed as inhibition ratio of TNF-alpha mRNA expression in colon tissue at 10 mg/kg, IG via gavage measured after 7 days by RT-qPCR analysis relative to control; assay type: functional; design: scale not given: the % may be the effect or the level left; conditions: time 7 day
Mus musculus [19] = experiment: Antiinflammatory activity against DSS-induced C57BL/6 mouse model of acute ulcerative colitis assessed as inhibition ratio of IL-23 mRNA expression in colon tissue at 3 mg/kg, IG via gavage measured after 7 days by RT-qPCR analysis relative to control; assay type: functional; design: scale not given: the % may be the effect or the level left; conditions: time 7 day
Mus musculus [20] = experiment: Antiinflammatory activity against DSS-induced C57BL/6 mouse model of acute ulcerative colitis assessed as inhibition ratio of IL-23 mRNA expression in colon tissue at 10 mg/kg, IG via gavage measured after 7 days by RT-qPCR analysis relative to control; assay type: functional; design: scale not given: the % may be the effect or the level left; conditions: time 7 day
Mus musculus [21] = experiment: Anti-ulcerative colitis activity in IL-10-/- C57BL/6 mouse model of ulcerative colitis assessed as body weight recovery ratio at 10 mg/kg, IG via gavage for 8 weeks and measured everyday relative to control; assay type: functional
Mus musculus [22] = experiment: Anti-ulcerative colitis activity in IL-10-/- C57BL/6 mouse model of ulcerative colitis assessed as colon length recovery ratio at 3 mg/kg, IG via gavage for 8 weeks relative to control; assay type: functional
Mus musculus [23] = experiment: Antiinflammatory activity against IL-10-/- C57BL/6 mouse model of ulcerative colitis assessed as inhibition ratio of TNF-alpha protein expression at 1 mg/kg, IG via gavage and measured after 8 weeks by ELISA relative to control; assay type: functional; design: scale not given: the % may be the effect or the level left
Mus musculus [24] = experiment: Antiinflammatory activity against IL-10-/- C57BL/6 mouse model of ulcerative colitis assessed as inhibition ratio of IL-6 protein expression at 1 mg/kg, IG via gavage and measured after 8 weeks by ELISA relative to control; assay type: functional; design: scale not given: the % may be the effect or the level left
Mus musculus [25] = experiment: Antiinflammatory activity against IL-10-/- C57BL/6 mouse model of ulcerative colitis assessed as inhibition ratio of IL-1beta mRNA expression in colon tissue at 1 mg/kg, IG via gavage and measured after 8 weeks by RT-qPCR analysis relative to control; assay type: functional; design: scale not given: the % may be the effect or the level left
Mus musculus [26] = experiment: Antiinflammatory activity against IL-10-/- C57BL/6 mouse model of ulcerative colitis assessed as inhibition ratio of IL-23 mRNA expression in colon tissue at 3 mg/kg, IG via gavage and measured after 8 weeks by RT-qPCR analysis relative to control; assay type: functional; design: scale not given: the % may be the effect or the level left
RAW264.7 [27] = experiment: Inhibition of MKK3-p38-elF4E signaling pathway in mouse RAW264.7 cells assessed as inhibition of LPS-induced p38 phosphorylation treated for 1.5 hrs followed by LPS treatment for 1 hr by Western blot analysis; assay type: cell-based; conditions: dose 3.125-12.5 µmol/L, time 2.5 hrs, DDE = dose-dependent effect
[28] = Toxicity in C57 mouse assessed as heart damage at 50 to 500 mg/kg, po administered daily for 14 days; assay type: organism-based; conditions: in vivo, 336 h, dose 50-500 mg/kg, time 14 day
[29] = Toxicity in C57 mouse assessed as spleen damage at 50 to 500 mg/kg, po administered daily for 14 days; assay type: organism-based; conditions: in vivo, 336 h, dose 50-500 mg/kg, time 14 day
[30] = Toxicity in C57 mouse assessed as kidney damage at 50 to 500 mg/kg, po administered daily for 14 days; assay type: organism-based; conditions: in vivo, 336 h, dose 50-500 mg/kg, time 14 day
Mus musculus [31] = experiment: Anti-ulcerative colitis activity against DSS-induced ulcerative colitis C57BL/6 mouse model assessed as reduction in DAI score at 3 mg/kg, IG via gavage administered for 7 days and measured everyday (reference value: 4.0); assay type: functional; conditions: time 7 day
Mus musculus [32] = experiment: Anti-ulcerative colitis activity against DSS-induced ulcerative colitis C57BL/6 mouse model assessed as reduction in DAI recovery score ratio at 10 mg/kg, IG via gavage administered for 7 days and measured everyday relative to control; assay type: functional; design: scale not given: the % may be the effect or the level left; conditions: time 7 day

## COc1ccc([C@H]2CC(=O)c3cc(OC)cc(OC)c32)cc1
RAW264.7 [1]
  IC50: 0.58 µM
[2]
  CLH: 46 mL/min/g
[3]
  logP at 24 h: 2.01
[4]
  IC50: > 30 µM
[5]
  Activity: Non-Toxic
[6]
  AUC(0-t): 7250 ng·h/mL
[7]
  MRT inf: 7.32 h
[8]
  half-life: 9.29 h
[9]
  CLz/F: 9.67 mL/min/kg
[10]
  AUC(0-t): 9900 ng·h/mL
Mus musculus [11]
  Activity: 33.3%
Mus musculus [12]
  Activity: 55.9%
Mus musculus [13]
  Activity: 46.9%
Mus musculus [14]
  Activity: 60.8%
Mus musculus [15]
  Activity: 32.8%
Mus musculus [16]
  Activity: 68%
Mus musculus [17]
  Activity: 76%
Mus musculus [18]
  Activity: 78.5%
Mus musculus [19]
  Activity: 89.9%
Mus musculus [20]
  Activity: 90.5%
Mus musculus [21]
  Activity: 19.4%
Mus musculus [22]
  Activity: 29.4%
Mus musculus [23]
  Activity: 40.2%
Mus musculus [24]
  Activity: 31.4%
Mus musculus [25]
  Activity: 22.8%
Mus musculus [26]
  Activity: 51.7%
RAW264.7 [27]
  inhibition: Dde
[28]
  Activity: Non-Toxic
[29]
  Activity: Non-Toxic
[30]
  Activity: Non-Toxic
Mus musculus [31]
  Activity: 2.4
Mus musculus [32]
  Activity: 45%
